# Data published in US12233044B2, “Cannabidiol and chitosan compositions and methods of using the same” (priority 2017, dated 2025).
# “And” between values parts separate entries of the source, which are not always exact repeats. Equal values may be shown once.
# Experiments:
# [1] = Guinea pig induced dyslipidemia model, body weight gain; type: in vivo
# Protocol: The objective of this research was to examine the cholesterol blood levels of guinea pigs, fed ad libitum a high-level fat diet rich in lauric and myristic acids alone or in combination with various formulations.
# “Day 0” was initiation of the Study period, animals received regular guinea pig diet. Day 3 the animals were subjected to blood withdrawal and subsequently the first day of supplying the fattening diet. On day 11 chitosan diet was administered to the relevant group. On day 24 CBD diet and CBD chitosan diet were administered until day 27.
# Determination of individual body weights of animals was conducted once weekly during the entire study.
# [2] = test system: Triglyceride levels in the serum; assay: Guinea pig induced dyslipidemia model, serum triglycerides; type: in vivo
# Protocol: The blood cholesterol and triglycerides were examined in male guinea pigs, following an oral administration of the various formulations in correlation to the Controlled group.
# Measurement of cholesterol, and Triglyceride levels in the serum were performed following a 7-10 day of exposure to the different diets.
# Day 3 all animals; Day 11 all animals; Day 24 all animals; Day 27 CBD, CNTL-fattening and CBD-chitosan group.
# The blood collection tubes (BD 367955) were specialized for serum separation, containing a clot activator and a gel which separates the cell content (pellet) from the serum (supernatant) after centrifugation. Blood samples of ˜0.5 mL/animal were collected into the pre-marked tubes (study code, animal number and date). At all times blood was collected under anesthesia: Ketamine 20-40 mg/kg & Diazepam 1-2 mg/kg IM. Blood collection of all animals was performed via the periorbital eye venous plexus puncture.
# Blood samples were left at room temperature for at least 45 minutes, and subsequently centrifuged ([…], 1790 g, 10 min/RT) for serum separation and left in the specialized tubes with the gel partitioning the separated serum and cell content. The samples were transferred as such to AML.
# Following serum separation, the samples were kept at 2-8° C. until transferred to AML, for blood lipid profile analysis (cholesterol, LDL, HDL and Triglyceride levels). Sample transfer was via wet ice packed in Styrofoam boxes and transferred within 1-2 hours from blood separation.
structure (smiles),measurement,setting,value
"C=C(C)[C@@H]1CCC(C)=C[C@H]1c1c(O)cc(CCCCC)cc1O [CBD, Cannabidiol]","Change in Weight by group, Mean","[1]; change in weight during treatment, group mean, N 15",58.8
same,"Mean difference, Change in Weight by group",[1]; contrast CBD - CHIT,34.5
same,"Mean difference, Change in Weight by group",[1]; contrast CNTL - CBD,6.0
same,"Mean difference, DELTA WEIGHT second phase",[1]; contrast CNTL - CBD,2.8
same,"DELTA WEIGHT, Second phase Group","[1]; individual animals, second phase treatment",108.00 and 133.00 and 157.00 and 130.00
same,"DELTA WEIGHT by Second phase Group, Mean","[1]; study initiation to after second phase treatment, group mean",132.0
same,"Mean difference, TG delta 27 D to 10 D",[2]; contrast CNTL - CBD CNTL,28.3
same,"TG delta 27 D to 10 D by group second phase, Mean",[2]; group mean,−33.0
same,Triglycerides lowering effect (in words),"[2]; guinea pig, in vivo",lower TG values
same,Difference in triglycerides versus CNTL group,[2]; significance,not significant
